Measured values reported in US8828985B2, “Carbamate and urea inhibitors of 11-beta-hydroxysteroid dehydrogenase 1” (Vitae Pharmaceuticals, Inc., priority 2008, dated 2014).
Read-outs that look alike come from different tables or passages of the source.

Experiments:
[1] = target: T1, human 11β-HSD1 (Homo sapiens, UniProt P28845); settings: for IC50: read-out: Biological Test Example 2 IC50 Range, microsomes from CHO cells overexpressing human 11β-HSD1, SPA
Description: (§1) All reactions are carried out at room temperature in 96 well clear flexible PET Microbeta plates (PerkinElmer). […] The reaction is stopped by adding 50 μl of the SPA beads suspension containing 10 μM 18β-glycyrrhetinic acid, 5 mg/ml protein A coated YSi SPA beads (GE Healthcare) and 3.3 μg/ml of anti-cortisol antibody (East Coast Biologics) in Superblock buffer (Bio-Rad). The plates are then shaken for 120 minutes at room temperature, and the SPA signal corresponding to [^3H]cortisol is measured on a Microbeta plate reader.

[2] = target: T1, human 11β-HSD1; assay: biochemical; settings: for IC50: Biological Test Example 2 IC50 Range, microsomes from CHO cells overexpressing human 11β-HSD1, SPA; for inhibition at 0.1 µM / inhibition at 0.111 µM: 1.5 h; for inhibition at 0.1 µM: read-out: Biological Test Example 2 Average % inhibition at 100 nm, at 100 nm; for inhibition at 0.111 µM: read-out: Biological Test Example 2 Average % inhibition at 111 nm, at 111 nm
Description: as §1

T1 sequence (P28845 whole entry): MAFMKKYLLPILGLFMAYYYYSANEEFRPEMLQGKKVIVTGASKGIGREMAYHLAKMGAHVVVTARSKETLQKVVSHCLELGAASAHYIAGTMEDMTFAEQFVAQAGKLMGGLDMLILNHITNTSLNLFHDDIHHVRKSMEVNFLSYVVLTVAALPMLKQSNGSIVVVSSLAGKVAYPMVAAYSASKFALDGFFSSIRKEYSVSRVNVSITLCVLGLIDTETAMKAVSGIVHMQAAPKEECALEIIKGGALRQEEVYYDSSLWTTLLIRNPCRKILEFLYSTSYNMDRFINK

Compound | IC50 [2] | inhibition at 0.1 µM [2] | other results
N#Cc1ccc(N[C@@H]2CCN(C(=O)NC3CC4CCC(C3)N4C(N)=O)C2)nc1 (single isomer, unassigned) [Example 104 Isomer 2] |  |  | Biological Test Example 2 Average % inhibition at 111 nm [1]: −6.1%; IC50 [1]: > 1000 nM
NC(=O)C12CC3CC(C1)C(OC(=O)N1CC[C@@H](NC(=O)OCc4ccccc4)C1)C(C3)C2 (single isomer, unassigned) [Example 25 Isomer 1] | > 100 nM |  | Biological Test Example 2 Average % inhibition at 100 nm [1]: 45.6%
CC(C)(C)OC(=O)NC1(Cc2ccccc2)CCN(C(=O)OC2C3CC4CC2CC(C(N)=O)(C4)C3)C1 (single isomer, unassigned) [Example 29 Isomer 1, (cis-1-carbamoyl-4-adamantyl) 3-benzyl-3-(tert-butoxycarbonylamino)pyrrolidine-1-carboxylate] | > 100 nM |  | Biological Test Example 2 Average % inhibition at 100 nm [1]: 41.2%
CC1(NC(=O)OC(C)(C)C)CCN(C(=O)OC2C3CC4CC2CC(C(N)=O)(C4)C3)C1 (single isomer, unassigned) [Example 22 Isomer 2, (trans-1-carbamoyl-4-adamantyl) 3-(tert-butoxycarbonylamino)-3-methylpyrrolidine-1-carboxylate] | < 100 nM |  | Biological Test Example 2 Average % inhibition at 100 nm [1]: 95.5%
N#Cc1ccc(N[C@@H]2CCN(C(=O)NC3CC4CCC(C3)N4C(N)=O)C2)nc1 (single isomer, unassigned) [Example 104 Isomer 1] |  |  | Biological Test Example 2 Average % inhibition at 111 nm [1]: −6.2%; IC50 [1]: > 1000 nM
NC(=O)C12CC3CC(C1)C(OC(=O)N1CC[C@@H](Nc4ncccn4)C1)C(C3)C2 (single isomer, unassigned) [Example 62 Isomer 2] |  |  | Biological Test Example 2 Average % inhibition at 100 nm [1]: 78.7%; IC50 [1]: < 100 nM
CC(C)(C)OC(=O)N(CCO)[C@@H]1CCN(C(=O)O[C@H]2C3CC4CC2C[C@](C(N)=O)(C4)C3)C1 [Example 28, (R)-(1-carbamoyl-4-adamantyl) 3-(tert-butoxycarbonyl(2-hydroxyethyl)amino)pyrrolidine-1-carboxylate] | < 100 nM |  | 
N#Cc1ccc(N[C@@H]2CCN(C(=O)OC3C4CC5CC3CC(C(=O)NC3CC3)(C5)C4)C2)nc1 (single isomer, unassigned) [Example 118 Isomer 2] |  |  | Biological Test Example 2 Average % inhibition at 100 nm [1]: 7.15%; IC50 [1]: > 100 nM
N#Cc1ccc(N[C@@H]2CCN(C(=O)O[C@H]3C[C@H]4CC[C@@H](C3)N4C(N)=O)C2)nc1 [Example 105, (3R)-8-carbamoyl-8-azabicyclo[3.2.1]octan-3-yl 3-(5-cyanopyridin-2-ylamino)pyrrolidine-1-carboxylate] | > 100 nM | 14.8% | 
CN(C)C(=O)c1cnc(N[C@@H]2CCN(C(=O)O[C@H]3C4CC5CC3C[C@](O)(C5)C4)C2)nc1 [Example 111, (R)-(trans-1-hydroxy-4-adamantyl) 3-(5-(dimethylcarbamoyl)pyrimidin-2-ylamino)pyrrolidine-1-carboxylate] | > 100 nM | 33.5% | 
CN(C)C(=O)c1cccnc1N[C@@H]1CCN(C(=O)O[C@H]2C3CC4CC2C[C@](O)(C4)C3)C1 [Example 89, (R)-(trans-1-hydroxy-4-adamantyl) 3-(3-(dimethylcarbamoyl)pyridin-2-ylamino)pyrrolidine-1-carboxylate] | > 100 nM | 39.1% | 
O=C(NC1CC1)c1cnc(N[C@@H]2CCN(C(=O)O[C@H]3C4CC5CC3C[C@](O)(C5)C4)C2)nc1 [Example 112, (R)-(trans-1-hydroxy-4-adamantyl) 3-(5-(cyclopropylcarbamoyl)pyrimidin-2-ylamino)pyrrolidine-1-carboxylate] | > 100 nM | 33.3% | 
N#Cc1ccc2nc(N[C@@H]3CCN(C(=O)O[C@H]4C5CC6CC4C[C@](O)(C6)C5)C3)sc2c1 [Example 94, (R)-(trans-1-hydroxy-4-adamantyl) 3-(6-cyanobenzo[d]thiazol-2-ylamino)pyrrolidine-1-carboxylate] | < 100 nM | 90.8% | 
O=C(O)c1cnc(N[C@@H]2CCN(C(=O)O[C@H]3C4CC5CC3C[C@](O)(C5)C4)C2)nc1 [Example 108, 2-((R)-1-((trans-1-hydroxy-4-adamantyloxy)carbonyl)pyrrolidin-3-ylamino)pyrimidine-5-carboxylic acid] | > 100 nM | 14.2% | 
N#Cc1cccnc1NC1CCN(C(=O)O[C@H]2C3CC4CC2C[C@](C(N)=O)(C4)C3)CC1 [Example 68, (1-carbamoyl-4-adamantyl) 4-(3-cyanopyridin-2-ylamino)piperidine-1-carboxylate] | < 100 nM | 90.7% | 
N#Cc1cnc(N[C@@H]2CCN(C(=O)O[C@H]3C4CC5C[C@@H]3C[C@](C(N)=O)(C5)C4)C2)s1 [Example 72, (3R) (1-carbamoyl-4-adamantyl) 3-(5-cyanothiazol-2-ylamino)pyrrolidine-1-carboxylate] | < 100 nM | 97.3% | inhibition at 0.111 µM [2]: 97.3%
N#Cc1cccnc1N[C@@H]1CCN(C(=O)O[C@H]2C3CC4CC2C[C@](C(N)=O)(C4)C3)C1 [Example 34, (R)-(trans-1-carbamoyl-4-adamantyl) 3-(3-cyanopyridin-2-ylamino)pyrrolidine-1-carboxylate] | < 100 nM | 94.6% | 
COC(=O)C12CC3CC(C1)C(OC(=O)N1CC[C@@H](Nc4ncccc4C#N)C1)C(C3)C2 (stereo partly drawn) [Example 70, (R)-(1-(methoxycarbonyl)-4-adamantyl) 3-(3-cyanopyridin-2-ylamino)pyrrolidine-1-carboxylate] | < 100 nM | 78.4% | 

Further lines, with some results ahead:

IC50 [2] | inhibition at 0.1 µM [2] | Compound | other results
< 100 nM |  | CNC(=O)C12CC3CC(C1)C(OC(=O)N1CC[C@@H](Nc4ccc(C#N)cn4)C1)C(C3)C2 (single isomer, unassigned) [Example 114 Isomer 2] | Biological Test Example 2 Average % inhibition at 100 nm [1]: 58.4%
< 100 nM |  | NC(=O)C12CC3CC(C1)C(OC(=O)N1CC[C@@H](NC(=O)OCc4ccccc4)C1)C(C3)C2 (single isomer, unassigned) [Example 25 Isomer 2] | Biological Test Example 2 Average % inhibition at 100 nm [1]: 91.3%
< 100 nM | 71.4% | N#Cc1ccc(N[C@@H]2CCN(C(=O)O[C@H]3C4CC5CC3C[C@](C(N)=O)(C5)C4)C2)nn1 [Example 116, (R)-(trans-1-carbamoyl-4-adamantyl) 3-(6-cyanopyridazin-3-ylamino)pyrrolidine-1-carboxylate] | 
< 100 nM | 98.8% | N#Cc1ccc(N2CCCC23CCN(C(=O)O[C@H]2C4CC5CC2C[C@](C(N)=O)(C5)C4)C3)nc1 (stereo partly drawn) [Example 75, (trans-1-carbamoyl-4-adamantyl) 1-(5-cyanopyridin-2-yl)-1,7-diazaspiro[4.4]nonane-7-carboxylate] | inhibition at 0.111 µM [2]: 97.7%
< 100 nM | 80.1% | N#Cc1ccc(N[C@@H]2CCN(C(=O)O[C@H]3C4CC5CC3C[C@](O)(C5)C4)C2)cc1 [Example 78, (R)-(trans-1-hydroxy-4-adamantyl) 3-(4-cyanophenylamino)pyrrolidine-1-carboxylate] | 
< 100 nM | 94.6% | N#Cc1cccnc1N[C@@H]1CCN(C(=O)O[C@H]2C3CC4CC2C[C@](C#N)(C4)C3)C1 [Example 73, (3R) (trans-1-cyano-4-adamantyl) 3-(3-cyanopyridin-2-ylamino)pyrrolidine-1-carboxylate] | 
< 100 nM | 102% | CN(c1ccc(C(F)(F)F)cn1)C1CCN(C(=O)O[C@H]2C3CC4CC2C[C@](C(N)=O)(C4)C3)C1 (stereo partly drawn) [Example 43, (trans-1-carbamoyl-4-adamantyl) 3-(methyl(5-(trifluoromethyl)pyridin-2-yl)amino)pyrrolidine-1-carboxylate] | 
< 100 nM | 95.6% | N#Cc1ccc2nc(N[C@@H]3CCN(C(=O)O[C@H]4C5CC6CC4C[C@](O)(C6)C5)C3)ccc2c1 [Example 90, (R)-(trans-1-hydroxy-4-adamantyl) 3-(6-cyanoquinolin-2-ylamino)pyrrolidine-1-carboxylate] | 
< 100 nM | 50.1% | NC(=O)c1cnc(N[C@@H]2CCN(C(=O)O[C@H]3C4CC5CC3C[C@](O)(C5)C4)C2)nc1 [Example 109, (R)-(trans-1-hydroxy-4-adamantyl) 3-(5-carbamoylpyrimidin-2-ylamino)pyrrolidine-1-carboxylate] | 
< 100 nM | 69.4% | Cc1nccc2nc(N[C@@H]3CCN(C(=O)O[C@H]4C5CC6CC4C[C@](O)(C6)C5)C3)ccc12 [Example 88, (R)-(trans-1-hydroxy-4-adamantyl) 3-(5-methyl-1,6-naphthyridin-2-ylamino)pyrrolidine-1-carboxylate] | 
< 100 nM | 98.5% | Cc1ccc(C#N)c(N[C@@H]2CCN(C(=O)O[C@H]3C4CC5CC3C[C@](O)(C5)C4)C2)n1 [Example 83, (R)-(trans-1-hydroxy-4-adamantyl) 3-(3-cyano-6-methylpyridin-2-ylamino)pyrrolidine-1-carboxylate] | 
< 100 nM | 60.2% | NC(=O)c1cnc(N[C@@H]2CCN(C(=O)O[C@H]3C4CC5CC3C[C@](O)(C5)C4)C2)c(Cl)c1 [Example 92, (R)-(trans-1-hydroxy-4-adamantyl) 3-(5-carbamoyl-3-chloropyridin-2-ylamino)pyrrolidine-1-carboxylate] | 
< 100 nM |  | O=C(O[C@H]1C2CC3CC1C[C@](O)(C3)C2)N1CC[C@@H](Nc2ncc(Cl)cc2[N+](=O)[O-])C1 [Example 93, (R)-(trans-1-hydroxy-4-adamantyl) 3-(5-chloro-3-nitropyridin-2-ylamino)pyrrolidine-1-carboxylate] | 
